Experimental data reported in patent US9725449B2, “Tricyclic compounds as anticancer agents” (BRISTOL-MYERS SQUIBB COMPANY, priority 2015, dated 2017).

Target: BRD4 (Homo sapiens, UniProt O60885)
Assay: Time resolved fluorescence resonance energy transfer (TR-FRET) binding assay, bromodomain BRD4
Conditions: FRET BRD4 IC50 (nM), one of the FRET assays described

`[2H]C([2H])([2H])c1nnn(C)c1-c1cnc2c3ccc(N4C5CCC4CC(O)C5)nc3n([C@H](c3ccccc3)C3CCOCC3)c2c1` (stereo partly drawn) [Example 183, 8-{5-[4-(^2H3)Methyl-1-methyl-1H-1,2,3-triazol-5-yl]-8-[(S)-oxan-4-yl(phenyl)methyl]-3,8,10-triazatricyclo[7.4.0.0^2,^7]trideca-1(9),2(7),3,5,10,12-hexaen-11-yl}-8-azabicyclo[3.2.1]octan-3-ol] and `[2H]C([2H])([2H])c1nnn(C)c1-c1cnc2c3ccc(N4C5CCCC4CC5)nc3n([C@H](c3ccccc3)C3CCOCC3)c2c1` [Example 184, 11-{8-Azabicyclo[3.2.1]octan-8-yl}-5-[4-(^2H3)methyl-1-methyl-1H-1,2,3-triazol-5-yl]-8-[(S)-oxan-4-yl(phenyl)methyl]-3,8,10-triazatricyclo[7.4.0.0^2,^7]trideca-1(9),2(7),3,5,10,12-hexaene] cannot be ordered by IC50: < 10 nM for the first, < 10 nM for the second.

Same assay, conditions: one of the FRET assays described; read-out: FRET BRD4 IC50

`Cc1nnn(C)c1-c1cnc2c3ccc(N4CCOCC4)nc3n([C@H](c3ccccc3)C3CCOCC3)c2c1` [Example 178, 5-(Dimethyl-1H-1,2,3-triazol-5-yl)-11-(morpholin-4-yl)-8-[(S)-oxan-4-yl(phenyl)methyl]-3,8,10-triazatricyclo[7.4.0.0^2,^7]trideca-1(9),2(7),3,5,10,12-hexaene] and `Cc1nnn(C)c1-c1cnc2c3ccc(N4CCC(C)(O)CC4)nc3n([C@H](c3ccccc3)C3CCOCC3)c2c1` [Example 180, 1-[5-(Dimethyl-1H-1,2,3-triazol-5-yl)-8-[(S)-oxan-4-yl(phenyl)methyl]-3,8,10-triazatricyclo[7.4.0.0^2,^7]trideca-1(9),2(7),3,5,10,12-hexaen-11-yl]-4-methylpiperidin-4-ol] cannot be ordered by IC50: < 1 nM for the first, < 1 nM for the second.

`Cc1nnn(C)c1-c1cnc2c3ccc(N4CC(O)C4)nc3n([C@H](c3ccccc3)C3CCOCC3)c2c1` [Example 179, 1-[5-(Dimethyl-1H-1,2,3-triazol-5-yl)-8-[(S)-oxan-4-yl(phenyl)methyl]-3,8,10-triazatricyclo[7.4.0.0^2,^7]trideca-1(9),2(7),3,5,10,12-hexaen-11-yl]azetidin-3-ol] and `Cc1nnn(C)c1-c1cnc2c3ccc(N4CCS(=O)(=O)CC4)nc3n([C@H](c3ccccc3)C3CCOCC3)c2c1` [Example 182, 4-[5-(Dimethyl-1H-1,2,3-triazol-5-yl)-8-[(S)-oxan-4-yl(phenyl)methyl]-3,8,10-triazatricyclo[7.4.0.0^2,^7]trideca-1(9),2(7),3,5,10,12-hexaen-11-yl]-1,4-thiomorpholine-1,1-dione] cannot be ordered by IC50: < 1 nM for the first, < 1 nM for the second.

`Cc1nnn(C)c1-c1cnc2c3ccc(N(C)C)nc3n([C@H](c3ccccc3)C3CCOCC3)c2c1` [Example 181, 5-(Dimethyl-1H-1,2,3-triazol-5-yl)-N,N-dimethyl-8-[(S)-oxan-4-yl(phenyl)methyl]-3,8,10-triazatricyclo[7.4.0.0^2,^7]trideca-1(9),2(7),3,5,10,12-hexaen-11-amine] and `CSc1ccc2c3ncc(-c4c(C)nnn4C)cc3n([C@H](c3ccccc3)C3CCOCC3)c2n1` [Example 194, 5-(Dimethyl-1H-1,2,3-triazol-5-yl)-11-(methylsulfanyl)-8-[(S)-oxan-4-yl(phenyl)methyl]-3,8,10-triazatricyclo[7.4.0.0^2,^7]trideca-1(9),2(7),3,5,10,12-hexaene] cannot be ordered by IC50: < 1 nM for the first, < 10 nM for the second.

`[2H]C([2H])([2H])c1nnn(C)c1-c1cnc2c3ccc(N4CCS(=O)(=O)CC4)nc3n([C@H](c3ccccc3)C3CCOCC3)c2c1` [Example 185, 4-{5-[4-(^2H3)Methyl-1-methyl-1H-1,2,3-triazol-5-yl]-8-[(S)-oxan-4-yl(phenyl)methyl]-3,8,10-triazatricyclo[7.4.0.0^2,^7]trideca-1(9),2(7),3,5,10,12-hexaen-11-yl}-1λ^6,4-thiomorpholine-1,1-dione] and `[2H]C([2H])([2H])c1nnn(C)c1-c1cnc2c3ccc(N4CC(N5CCS(=O)(=O)CC5)C4)nc3n([C@H](c3ccccc3)C3CCOCC3)c2c1` [Example 186, 4-(1-{5-[4-(^2H3)Methyl-1-methyl-1H-1,2,3-triazol-5-yl]-8-[(S)-oxan-4-yl(phenyl)methyl]-3,8,10-triazatricyclo[7.4.0.0^2,^7]trideca-1(9),2(7),3,5,10,12-hexaen-11-yl}azetidin-3-yl)-1λ^6,4-thiomorpholine-1,1-dione] cannot be ordered by IC50: < 10 nM for the first, < 10 nM for the second.

`COc1ccc(CNc2ccc3c4ncc(-c5c(C)nnn5C)cc4n([C@H](c4ccccc4)C4CCOCC4)c3n2)c(OC)c1` [Example 187, N-[(2,4-Dimethoxyphenyl)methyl]-5-(dimethyl-1H-1,2,3-triazol-5-yl)-8-[(S)-oxan-4-yl(phenyl)methyl]-3,8,10-triazatricyclo[7.4.0.0^2,^7]trideca-1(9),2(7),3,5,10,12-hexaen-11-amine] and `Cc1nnn(C)c1-c1cnc2c3ccc([S+](C)[O-])nc3n([C@H](c3ccccc3)C3CCOCC3)c2c1` (stereo partly drawn) [Example 200, 5-(Dimethyl-1H-1,2,3-triazol-5-yl)-11-methanesulfinyl-8-[(S)-oxan-4-yl(phenyl)methyl]-3,8,10-triazatricyclo[7.4.0.0^2,^7]trideca-1(9),2(7),3,5,10,12-hexaene] cannot be ordered by IC50: < 10 nM for the first, < 10 nM for the second.

`Cc1nnn(C)c1-c1cnc2c3ccc(N4CCN(S(C)(=O)=O)CC4)nc3n([C@H](c3ccccc3)C3CCOCC3)c2c1` [Example 188, 5-(Dimethyl-1H-1,2,3-triazol-5-yl)-11-(4-methanesulfonylpiperazin-1-yl)-8-[(S)-oxan-4-yl(phenyl)methyl]-3,8,10-triazatricyclo[7.4.0.0^2,^7]trideca-1(9),2(7),3,5,10,12-hexaene] and `Cc1nnn(C)c1-c1cnc2c3ccc(N4CCC(S(C)(=O)=O)CC4)nc3n([C@H](c3ccccc3)C3CCOCC3)c2c1` [Example 192, 5-(Dimethyl-1H-1,2,3-triazol-5-yl)-11-(4-methanesulfonylpiperidin-1-yl)-8-[(S)-oxan-4-yl(phenyl)methyl]-3,8,10-triazatricyclo[7.4.0.0^2,^7]trideca-1(9),2(7),3,5,10,12-hexaene] cannot be ordered by IC50: < 1 nM for the first, < 1 nM for the second.

`[2H]C([2H])([2H])c1nnn(C)c1-c1cnc2c3ccc(NCCS(C)(=O)=O)nc3n([C@H](c3ccccc3)C3CCOCC3)c2c1` [Example 189, N-(2-Methanesulfonylethyl)-5-[4-(^2H3)methyl-1-methyl-1H-1,2,3-triazol-5-yl]-8-[(S)-oxan-4-yl(phenyl)methyl]-3,8,10-triazatricyclo[7.4.0.0^2,^7]trideca-1(9),2(7),3,5,10,12-hexaen-11-amine] and `[2H]C([2H])([2H])c1nnn(C)c1-c1cnc2c3ccc(C(C)=O)nc3n([C@H](c3ccccc3)C3CCOCC3)c2c1` [Example 202, 1-{5-[4-(^2H3)Methyl-1-methyl-1H-1,2,3-triazol-5-yl]-8-[(S)-oxan-4-yl(phenyl)methyl]-3,8,10-triazatricyclo[7.4.0.0^2,^7]trideca-1(9),2(7),3,5,10,12-hexaen-11-yl}ethan-1-one] cannot be ordered by IC50: < 1 nM for the first, < 10 nM for the second.

`[2H]C([2H])([2H])c1nnn(C)c1-c1cnc2c3ccc(N4CC(C)S(=O)(=O)C(C)C4)nc3n([C@H](c3ccccc3)C3CCOCC3)c2c1` (stereo partly drawn) [Example 193, 2,6-Dimethyl-4-{5-[4-(^2H3)methyl-1-methyl-1H-1,2,3-triazol-5-yl]-8-[(S)-oxan-4-yl(phenyl)methyl]-3,8,10-triazatricyclo[7.4.0.0^2,^7]trideca-1(9),2(7),3,5,10,12-hexaen-11-yl}-1λ^6,4-thiomorpholine-1,1-dione] and `Cc1nnn(C)c1-c1cnc2c3ccc(S(N)(=O)=O)nc3n([C@H](c3ccccc3)C3CCOCC3)c2c1` [Example 195, 5-(Dimethyl-1H-1,2,3-triazol-5-yl)-8-[(S)-oxan-4-yl(phenyl)methyl]-3,8,10-triazatricyclo[7.4.0.0^2,^7]trideca-1(9),2(7),3,5,10,12-hexaene-11-sulfonamide] cannot be ordered by IC50: < 1 nM for the first, < 10 nM for the second.

`Cc1nnn(C)c1-c1cnc2c3ccc(S(=O)(=O)N4CCCC4)nc3n([C@H](c3ccccc3)C3CCOCC3)c2c1` [Example 196, 5-(Dimethyl-1H-1,2,3-triazol-5-yl)-8-[(S)-oxan-4-yl(phenyl)methyl]-11-(pyrrolidine-1-sulfonyl)-3,8,10-triazatricyclo[7.4.0.0^2,^7]trideca-1(9),2(7),3,5,10,12-hexaene] and `Cc1nnn(C)c1-c1cnc2c3ccc(S(=O)(=O)N4CCOCC4)nc3n([C@H](c3ccccc3)C3CCOCC3)c2c1` [Example 197, 5-(Dimethyl-1H-1,2,3-triazol-5-yl)-11-(morpholine-4-sulfonyl)-8-[(S)-oxan-4-yl(phenyl)methyl]-3,8,10-triazatricyclo[7.4.0.0^2,^7]trideca-1(9),2(7),3,5,10,12-hexaene] cannot be ordered by IC50: < 10 nM for the first, < 10 nM for the second.

`Cc1nnn(C)c1-c1cnc2c3ccc(S(=O)(=O)N4CCN(C)CC4)nc3n([C@H](c3ccccc3)C3CCOCC3)c2c1` [Example 198, 5-(Dimethyl-1H-1,2,3-triazol-5-yl)-11-[(4-methylpiperazin-1-yl)sulfonyl]-8-[(S)-oxan-4-yl(phenyl)methyl]-3,8,10-triazatricyclo[7.4.0.0^2,^7]trideca-1(9),2(7),3,5,10,12-hexaene] and `CNS(=O)(=O)c1ccc2c3ncc(-c4c(C)nnn4C)cc3n([C@H](c3ccccc3)C3CCOCC3)c2n1` [Example 199, 5-(Dimethyl-1H-1,2,3-triazol-5-yl)-N-methyl-8-[(S)-oxan-4-yl(phenyl)methyl]-3,8,10-triazatricyclo[7.4.0.0^2,^7]trideca-1(9),2(7),3,5,10,12-hexaene-11-sulfonamide] cannot be ordered by IC50: < 10 nM for the first, < 10 nM for the second.

For `[2H]C([2H])([2H])c1nnn(C)c1-c1cnc2c3cnc(S(C)(=O)=O)cc3n([C@H](c3ccccc3)C3CCOCC3)c2c1` [Example 201, 11-Methanesulfonyl-5-[4-(^2H3)methyl-1-methyl-1H-1,2,3-triazol-5-yl]-8-[(S)-oxan-4-yl(phenyl)methyl]-3,8,12-triazatricyclo[7.4.0.0^2,^7]trideca-1(9),2(7),3,5,10,12-hexaene], the IC50 was < 10 nM.
